Laboratory results: PubChem BioAssay (NCI)
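Compound exposure: 48 hours, 5 concentrations, 96-well plates. GI50 is the concentration that inhibits growth by half. The concentration for full growth arrest is given as TGI.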

How the values were obtained:
Assay in all cases: inhibition of tumour cell growth, NCI panel, 48 h
NCI-H226 lung = test system: NCI-H226 lung
SF-295 CNS = test system: SF-295 CNS
U251 CNS = test system: U251 CNS
NCI-H23 lung = test system: NCI-H23 lung
MALME-3M melanoma = test system: MALME-3M melanoma
OVCAR-4 ovarian = test system: OVCAR-4 ovarian
HS 578T breast = test system: HS 578T breast
IGROV1 ovarian = test system: IGROV1 ovarian
KM12 colon = test system: KM12 colon
UO-31 renal = test system: UO-31 renal
SK-MEL-28 melanoma = test system: SK-MEL-28 melanoma
OVCAR-3 ovarian = test system: OVCAR-3 ovarian
TK-10 renal = test system: TK-10 renal
RXF 393 renal = test system: RXF 393 renal
SF-268 CNS = test system: SF-268 CNS
NCI/ADR-RES ovarian = test system: NCI/ADR-RES ovarian
HOP-92 NSCLC = test system: HOP-92 NSCLC
NCI-H522 lung = test system: NCI-H522 lung
OVCAR-5 ovarian = test system: OVCAR-5 ovarian
MOLT-4 leukemia = test system: MOLT-4 leukemia
T-47D breast = test system: T-47D breast
LOX IMVI melanoma = test system: LOX IMVI melanoma
MDA-MB-468 breast = test system: MDA-MB-468 breast
SN12C renal = test system: SN12C renal
M14 melanoma = test system: M14 melanoma
SK-MEL-2 melanoma = test system: SK-MEL-2 melanoma
SK-MEL-5 melanoma = test system: SK-MEL-5 melanoma
HCC-2998 colon = test system: HCC-2998 colon
EKVX NSCLC = test system: EKVX NSCLC
CAKI-1 renal = test system: CAKI-1 renal
MCF7 breast = test system: MCF7 breast
SR leukemia = test system: SR leukemia
MDA-MB-435 = test system: MDA-MB-435
SF-539 CNS = test system: SF-539 CNS
786-0 renal = test system: 786-0 renal
ACHN renal = test system: ACHN renal
UACC-62 melanoma = test system: UACC-62 melanoma
A549 NSCLC = test system: A549 NSCLC
OVCAR-8 ovarian = test system: OVCAR-8 ovarian
COLO 205 colon = test system: COLO 205 colon
SK-OV-3 ovarian = test system: SK-OV-3 ovarian
SW-620 colon = test system: SW-620 colon
K-562 leukemia = test system: K-562 leukemia
UACC-257 melanoma = test system: UACC-257 melanoma
HT29 colon = test system: HT29 colon
HOP-62 NSCLC = test system: HOP-62 NSCLC
BT-549 breast = test system: BT-549 breast
PC-3 prostate = test system: PC-3 prostate
A498 renal = test system: A498 renal
DU-145 prostate = test system: DU-145 prostate
HL-60(TB) leukemia = test system: HL-60(TB) leukemia
CCRF-CEM leukemia = test system: CCRF-CEM leukemia
RPMI-8226 leukemia = test system: RPMI-8226 leukemia
HCT-15 colon = test system: HCT-15 colon
MDA-MB-231 breast = test system: MDA-MB-231 breast
SNB-75 CNS = test system: SNB-75 CNS
NCI-H460 lung = test system: NCI-H460 lung
SNB-19 CNS = test system: SNB-19 CNS

Molecule `CN1CCN(c2ccc(Nc3nc(NCCCNC(=O)c4ccc(F)cc4)c4sccc4n3)cc2)CC1` has a GI50 (NCI-H226 lung) of 11.3 µM, a TGI (NCI-H226 lung) of 23.9 µM and a GI50 (SF-295 CNS) of 1830 nM. The TGI (SF-295 CNS) was 4.2 µM, the GI50 (U251 CNS) was 3.01 µM and the TGI (U251 CNS) was 10.5 µM. It also gave a GI50 (NCI-H23 lung) of 10.3 µM, a TGI (NCI-H23 lung) of 24.9 µM and a GI50 (MALME-3M melanoma) of 1790 nM. The TGI (MALME-3M melanoma) was 3.2 µM, the GI50 (OVCAR-4 ovarian) was 5.84 µM and the TGI (OVCAR-4 ovarian) was 29.5 µM. For the same molecule, the GI50 (HS 578T breast) was 6.09 µM, the TGI (HS 578T breast) was 32.2 µM and the GI50 (IGROV1 ovarian) was 5.98 µM. The TGI (IGROV1 ovarian) was 19.9 µM, the GI50 (KM12 colon) was 4.32 µM and the TGI (KM12 colon) was 18.2 µM. The GI50 (UO-31 renal) was 11.7 µM, the TGI (UO-31 renal) was 23.9 µM and the GI50 (SK-MEL-28 melanoma) was 1770 nM. For the same molecule, the TGI (SK-MEL-28 melanoma) was 3.45 µM, the GI50 (OVCAR-3 ovarian) was 3.52 µM and the TGI (OVCAR-3 ovarian) was 13.3 µM. The GI50 (TK-10 renal) was 5.55 µM, the TGI (TK-10 renal) was 17.7 µM and the GI50 (RXF 393 renal) was 1450 nM. For the same molecule, the TGI (RXF 393 renal) was 3.25 µM, the GI50 (SF-268 CNS) was 4.38 µM and the TGI (SF-268 CNS) was 22.4 µM. The GI50 (NCI/ADR-RES ovarian) was 4.18 µM, the TGI (NCI/ADR-RES ovarian) was 24.9 µM and the GI50 (HOP-92 NSCLC) was 7.45 µM. For the same molecule, the TGI (HOP-92 NSCLC) was 28.2 µM, the GI50 (NCI-H522 lung) was 1770 nM and the TGI (NCI-H522 lung) was 3.92 µM. It also gave a GI50 (OVCAR-5 ovarian) of 11.7 µM, a TGI (OVCAR-5 ovarian) of 26 µM and a GI50 (MOLT-4 leukemia) of 1670 nM. It also gave a TGI (MOLT-4 leukemia) of 5.38 µM, a GI50 (T-47D breast) of 2640 nM and a TGI (T-47D breast) of 13.7 µM. For the same molecule, the GI50 (LOX IMVI melanoma) was 1670 nM, the TGI (LOX IMVI melanoma) was 3.31 µM and the GI50 (MDA-MB-468 breast) was 1460 nM. It also gave a TGI (MDA-MB-468 breast) of 4.82 µM, a GI50 (SN12C renal) of 10.5 µM and a TGI (SN12C renal) of 23.3 µM. For the same molecule, the GI50 (M14 melanoma) was 1830 nM, the TGI (M14 melanoma) was 3.59 µM and the GI50 (SK-MEL-2 melanoma) was 14.5 µM. For the same molecule, the TGI (SK-MEL-2 melanoma) was 28.3 µM, the GI50 (SK-MEL-5 melanoma) was 2080 nM and the TGI (SK-MEL-5 melanoma) was 4.95 µM. It also gave a GI50 (HCC-2998 colon) of 3.38 µM, a TGI (HCC-2998 colon) of 11.9 µM and a GI50 (EKVX NSCLC) of 12.4 µM. For the same molecule, the TGI (EKVX NSCLC) was 25.5 µM, the GI50 (CAKI-1 renal) was 3.43 µM and the TGI (CAKI-1 renal) was 15.2 µM. It also gave a GI50 (MCF7 breast) of 2670 nM, a TGI (MCF7 breast) of 11.1 µM and a GI50 (SR leukemia) of 1710 nM. For the same molecule, the TGI (SR leukemia) was 4.6 µM, the GI50 (MDA-MB-435) was 4.3 µM and the TGI (MDA-MB-435) was 16.1 µM. The GI50 (SF-539 CNS) was 1690 nM, the TGI (SF-539 CNS) was 3.16 µM and the GI50 (786-0 renal) was 1910 nM. The TGI (786-0 renal) was 5.45 µM, the GI50 (ACHN renal) was 3.04 µM and the TGI (ACHN renal) was 13.2 µM. The GI50 (UACC-62 melanoma) was 2040 nM, the TGI (UACC-62 melanoma) was 4.58 µM and the GI50 (A549 NSCLC) was 4.77 µM. It also gave a TGI (A549 NSCLC) of 22.2 µM, a GI50 (OVCAR-8 ovarian) of 4.14 µM and a TGI (OVCAR-8 ovarian) of 51.2 µM. For the same molecule, the GI50 (COLO 205 colon) was 5.29 µM, the TGI (COLO 205 colon) was 20.5 µM and the GI50 (SK-OV-3 ovarian) was 16.5 µM. It also gave a TGI (SK-OV-3 ovarian) of 34.1 µM, a GI50 (SW-620 colon) of 3.04 µM and a TGI (SW-620 colon) of 10.2 µM. It also gave a GI50 (K-562 leukemia) of 1410 nM, a TGI (K-562 leukemia) of 4.72 µM and a GI50 (UACC-257 melanoma) of 2140 nM. The TGI (UACC-257 melanoma) was 4.94 µM, the GI50 (HT29 colon) was 2460 nM and the TGI (HT29 colon) was 7.78 µM. For the same molecule, the GI50 (HOP-62 NSCLC) was 16.4 µM, the TGI (HOP-62 NSCLC) was 35.7 µM and the GI50 (BT-549 breast) was 4.39 µM. It also gave a TGI (BT-549 breast) of 16.7 µM, a GI50 (PC-3 prostate) of 3.19 µM and a TGI (PC-3 prostate) of 16.6 µM. The GI50 (A498 renal) was 18.8 µM, the TGI (A498 renal) was 32.8 µM and the GI50 (DU-145 prostate) was 7.65 µM. It also gave a TGI (DU-145 prostate) of 21 µM, a GI50 (HL-60(TB) leukemia) of 1520 nM and a TGI (HL-60(TB) leukemia) of 3.39 µM. The GI50 (CCRF-CEM leukemia) was 1920 nM, the TGI (CCRF-CEM leukemia) was 4.99 µM and the GI50 (RPMI-8226 leukemia) was 1790 nM. The TGI (RPMI-8226 leukemia) was 4.25 µM, the GI50 (HCT-15 colon) was 2310 nM and the TGI (HCT-15 colon) was 8.13 µM. The GI50 (MDA-MB-231 breast) was 4.15 µM, the TGI (MDA-MB-231 breast) was 14.5 µM and the GI50 (SNB-75 CNS) was 7.14 µM. It also gave a TGI (SNB-75 CNS) of 21.5 µM, a GI50 (NCI-H460 lung) of 3.25 µM and a TGI (NCI-H460 lung) of 12.8 µM. The GI50 (SNB-19 CNS) was 7.97 µM and the TGI (SNB-19 CNS) was 20.6 µM.
